The subject of assay [1] is Phosphatidylinositol 4,5-bisphosphate 3-kinase catalytic subunit alpha isoform (Homo sapiens), P42336 [E545A]. The assay can be described thus: Inhibition of PIK3CA E545A mutant (unknown origin) assessed as remaining activity at 5 uM incubated for 1 hr by KINOMEscan competitive binding assay relative to control.
The target in assay [2] is T1, Phosphatidylinositol 3-kinase C2 domain-containing subunit gamma (Homo sapiens) (UniProt O75747).
T1 sequence (whole entry): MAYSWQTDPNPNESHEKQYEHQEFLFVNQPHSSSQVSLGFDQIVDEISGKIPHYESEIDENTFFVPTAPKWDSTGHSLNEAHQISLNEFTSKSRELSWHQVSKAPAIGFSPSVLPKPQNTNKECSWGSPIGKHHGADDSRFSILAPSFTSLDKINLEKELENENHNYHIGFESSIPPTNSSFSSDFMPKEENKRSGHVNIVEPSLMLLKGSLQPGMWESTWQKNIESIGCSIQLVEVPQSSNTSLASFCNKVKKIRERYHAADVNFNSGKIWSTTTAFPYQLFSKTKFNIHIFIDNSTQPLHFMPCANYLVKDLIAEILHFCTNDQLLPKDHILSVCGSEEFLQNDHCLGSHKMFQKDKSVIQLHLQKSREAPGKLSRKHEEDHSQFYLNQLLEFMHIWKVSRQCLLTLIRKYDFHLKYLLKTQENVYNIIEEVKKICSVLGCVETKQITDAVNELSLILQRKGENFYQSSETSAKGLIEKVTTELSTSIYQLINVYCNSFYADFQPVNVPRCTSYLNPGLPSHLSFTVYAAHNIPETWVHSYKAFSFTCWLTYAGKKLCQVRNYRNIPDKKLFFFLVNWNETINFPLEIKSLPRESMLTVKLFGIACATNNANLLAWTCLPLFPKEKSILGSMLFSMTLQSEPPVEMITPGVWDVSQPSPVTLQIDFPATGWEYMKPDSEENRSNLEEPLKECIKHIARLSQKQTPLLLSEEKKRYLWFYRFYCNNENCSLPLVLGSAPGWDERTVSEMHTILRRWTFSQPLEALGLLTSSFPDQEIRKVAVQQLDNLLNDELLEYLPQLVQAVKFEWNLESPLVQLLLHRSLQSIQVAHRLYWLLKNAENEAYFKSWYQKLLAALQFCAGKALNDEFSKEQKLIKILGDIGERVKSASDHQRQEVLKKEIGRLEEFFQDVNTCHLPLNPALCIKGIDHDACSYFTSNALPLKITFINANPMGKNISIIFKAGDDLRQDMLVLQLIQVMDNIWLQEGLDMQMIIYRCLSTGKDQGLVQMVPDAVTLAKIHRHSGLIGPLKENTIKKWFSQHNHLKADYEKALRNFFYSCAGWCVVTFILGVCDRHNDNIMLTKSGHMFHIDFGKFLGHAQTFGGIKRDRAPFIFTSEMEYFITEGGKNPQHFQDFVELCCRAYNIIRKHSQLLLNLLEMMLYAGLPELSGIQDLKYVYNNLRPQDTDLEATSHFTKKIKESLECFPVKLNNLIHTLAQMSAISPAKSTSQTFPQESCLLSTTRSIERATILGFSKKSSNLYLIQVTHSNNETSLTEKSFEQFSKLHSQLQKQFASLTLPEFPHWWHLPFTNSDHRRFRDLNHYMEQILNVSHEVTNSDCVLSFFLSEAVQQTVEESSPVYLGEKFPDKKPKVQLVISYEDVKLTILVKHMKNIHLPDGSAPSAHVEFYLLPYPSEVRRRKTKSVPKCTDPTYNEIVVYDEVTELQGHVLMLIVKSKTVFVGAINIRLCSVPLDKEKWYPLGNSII
The assay can be described thus: Inhibition of PIK3C2G (unknown origin) assessed as remaining activity at 5 uM incubated for 1 hr by KINOMEscan competitive binding assay relative to control.

Assay [3] deals with Phosphatidylinositol 4,5-bisphosphate 3-kinase catalytic subunit beta isoform (Homo sapiens) (UniProt P42338). Put plainly: Inhibition of PIK3CB (unknown origin) assessed as remaining activity at 5 uM incubated for 1 hr by KINOMEscan competitive binding assay relative to control.
For assay [4], the target named is T1, Phosphatidylinositol 3-kinase C2 domain-containing subunit gamma (Homo sapiens). The assay can be described thus: Inhibition of PIK3C2G (unknown origin) assessed as remaining activity at 10 uM incubated for 1 hr by KINOMEscan competitive binding assay relative to control.

The structures appear in SMILES notation.

Chain of Phosphatidylinositol 4,5-bisphosphate 3-kinase catalytic subunit alpha isoform (Homo sapiens), P42336 [E545A] (P42336 whole entry E545A, the tested form may be a part, canonical isoform): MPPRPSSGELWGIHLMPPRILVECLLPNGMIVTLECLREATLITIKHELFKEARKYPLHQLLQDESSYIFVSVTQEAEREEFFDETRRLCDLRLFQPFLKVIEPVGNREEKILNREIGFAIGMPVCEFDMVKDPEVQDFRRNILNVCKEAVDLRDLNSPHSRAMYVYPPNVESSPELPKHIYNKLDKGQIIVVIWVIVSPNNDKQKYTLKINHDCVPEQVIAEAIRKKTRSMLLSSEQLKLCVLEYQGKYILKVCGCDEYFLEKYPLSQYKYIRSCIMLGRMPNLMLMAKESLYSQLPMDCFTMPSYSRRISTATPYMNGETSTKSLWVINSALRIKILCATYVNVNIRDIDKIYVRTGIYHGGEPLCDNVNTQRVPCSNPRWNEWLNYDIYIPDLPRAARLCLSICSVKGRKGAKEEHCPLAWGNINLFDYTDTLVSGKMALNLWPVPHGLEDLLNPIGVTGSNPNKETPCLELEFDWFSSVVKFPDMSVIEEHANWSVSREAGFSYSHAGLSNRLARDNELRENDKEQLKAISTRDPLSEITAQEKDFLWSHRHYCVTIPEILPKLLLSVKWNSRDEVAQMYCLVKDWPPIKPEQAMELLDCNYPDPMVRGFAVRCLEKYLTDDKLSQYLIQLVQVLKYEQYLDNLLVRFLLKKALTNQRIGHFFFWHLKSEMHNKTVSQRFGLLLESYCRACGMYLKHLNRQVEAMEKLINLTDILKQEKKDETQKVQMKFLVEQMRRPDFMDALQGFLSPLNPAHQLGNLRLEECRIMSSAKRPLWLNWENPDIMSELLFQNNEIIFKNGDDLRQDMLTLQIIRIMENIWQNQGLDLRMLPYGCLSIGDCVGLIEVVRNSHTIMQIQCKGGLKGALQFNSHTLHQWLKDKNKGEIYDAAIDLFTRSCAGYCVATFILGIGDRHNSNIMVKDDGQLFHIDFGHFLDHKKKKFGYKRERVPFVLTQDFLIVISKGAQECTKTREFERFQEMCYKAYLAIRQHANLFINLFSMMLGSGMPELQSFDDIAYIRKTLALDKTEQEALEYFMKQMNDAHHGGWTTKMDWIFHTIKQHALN
Chain of Phosphatidylinositol 4,5-bisphosphate 3-kinase catalytic subunit beta isoform (Homo sapiens) (P42338 whole entry, looked up, the tested form may be a part, canonical isoform): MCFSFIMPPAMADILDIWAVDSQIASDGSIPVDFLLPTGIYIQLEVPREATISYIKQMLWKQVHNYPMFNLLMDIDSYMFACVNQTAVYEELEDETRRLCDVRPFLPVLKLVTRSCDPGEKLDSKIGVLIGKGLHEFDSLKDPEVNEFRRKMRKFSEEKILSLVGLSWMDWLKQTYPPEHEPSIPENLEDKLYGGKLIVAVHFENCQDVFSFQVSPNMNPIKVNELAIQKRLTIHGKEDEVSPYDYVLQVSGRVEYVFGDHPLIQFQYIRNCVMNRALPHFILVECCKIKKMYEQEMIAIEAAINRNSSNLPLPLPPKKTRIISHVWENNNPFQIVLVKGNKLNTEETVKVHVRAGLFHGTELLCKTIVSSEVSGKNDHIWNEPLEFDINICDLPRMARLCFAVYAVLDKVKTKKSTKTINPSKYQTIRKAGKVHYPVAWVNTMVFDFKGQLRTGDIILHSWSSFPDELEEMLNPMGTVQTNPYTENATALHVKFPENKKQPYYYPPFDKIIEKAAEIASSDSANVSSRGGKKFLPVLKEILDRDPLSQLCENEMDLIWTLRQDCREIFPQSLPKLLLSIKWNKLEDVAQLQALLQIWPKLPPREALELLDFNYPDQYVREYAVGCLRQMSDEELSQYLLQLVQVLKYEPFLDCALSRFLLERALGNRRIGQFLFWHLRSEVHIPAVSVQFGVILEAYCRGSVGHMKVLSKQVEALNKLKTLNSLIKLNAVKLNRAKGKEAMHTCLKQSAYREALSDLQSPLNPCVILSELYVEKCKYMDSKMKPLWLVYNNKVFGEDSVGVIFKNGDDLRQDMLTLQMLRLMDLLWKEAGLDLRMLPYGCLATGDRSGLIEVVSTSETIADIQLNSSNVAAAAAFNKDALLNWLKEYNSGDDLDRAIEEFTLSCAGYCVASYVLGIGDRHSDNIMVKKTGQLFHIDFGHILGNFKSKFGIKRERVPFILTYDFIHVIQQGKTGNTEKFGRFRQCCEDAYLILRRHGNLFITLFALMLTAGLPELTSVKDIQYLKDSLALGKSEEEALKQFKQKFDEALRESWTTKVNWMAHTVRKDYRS

Turning to `O=c1[nH]c2ccc(Cl)cc2c(N[C@@H]2CN3CCC2CC3)c1-c1nc2ccccc2[nH]1`, the Activity was determined as 100% in assay [1], 74% in assay [2] and 83% in assay [3].

`NC(=O)Nc1cc(-c2cccc(F)c2)sc1C(=O)N[C@H]1CCCNC1`: the Activity in assay [4] came out at 98%.

The values above are taken from ChEMBL document CHEMBL5370693, “Kinases Controlling Stability of the Oncogenic MYCN Protein” (ACS Med Chem Lett, 2023).
